The assay deals with T1, linalool dehydratase (EC 4.2.1.127) (Castellaniella defragrans, UniProt E1XUJ2).
T1 construct: His tag; made in house; host or cells: E. coli BL21 (pARZ4 vector)
The assay is described as follows: Enzyme activity of linalool dehydratase using 3-buten-2-ol as substrate (headspace GC-MS for butadiene). It counts as biochemical. The settings on record: 11 mM 3-buten-2-ol, 25° C., purified his-tagged enzyme, butadiene in headspace by GC-MS. From the text:
The his-tagged linalool dehydratase (EC 4.2.1.127) from Castellaniella defragrans was cloned into a pARZ4 vector and transformed into E. coli BL21. The resulting strain was cultivated and induced using […] (isopropylthio-β-galactoside) in a shake flask culture containing Luria Broth media and kanamycin selection pressure.
The cells from each of the induced shake flask cultures were harvested and pelleted by centrifugation. The cell pellet was resuspended and the cells were lysed. The cell debris was separated from the supernatant via centrifugation and filtered using a 0.2 μm filter. The enzyme was purified from the filtered supernatant using Ni-affinity chromatography and concentrated and buffer exchanged using a Vivaspin 15R Centrifugal Concentrator and Hi-trap Desalting column into 80 mM Tris buffer (pH=9).
Non-native enzyme activity assays were undertaken in a buffer containing 11 mM of 3-buten-2-ol at 25° C. The activity assays were undertaken in 2 mL septum-sealed vials, thereby allowing butadiene accumulation in the headspace. The reaction was initiated by adding 1 mL of purified enzyme to the assay buffer containing the substrate.
The headspace was sampled for butadiene analysis by GC-MS (gas chromatography-mass spectrometry). […] Also, the ion peak areas were above the limit of quantitation for the GC-MS.

T1 sequence (E1XUJ2 27-397): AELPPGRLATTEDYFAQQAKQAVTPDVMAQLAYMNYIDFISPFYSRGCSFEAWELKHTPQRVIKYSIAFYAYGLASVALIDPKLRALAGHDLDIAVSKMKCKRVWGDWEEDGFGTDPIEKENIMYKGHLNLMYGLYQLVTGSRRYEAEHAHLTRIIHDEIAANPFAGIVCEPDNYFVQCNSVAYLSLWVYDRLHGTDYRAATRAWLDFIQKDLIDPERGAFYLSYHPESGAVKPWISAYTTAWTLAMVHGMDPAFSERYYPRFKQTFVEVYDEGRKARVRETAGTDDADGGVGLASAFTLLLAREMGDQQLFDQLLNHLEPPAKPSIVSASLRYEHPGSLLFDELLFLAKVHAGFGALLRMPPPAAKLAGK

As for `C=CC(C)O` (stereo not shown) [3-buten-2-ol], the “non-native enzyme activity: substrate acceptance, synthesis of butadiene” value is “accepts 3-buten-2-ol as a substrate”.

These data come from patent US10294496B2, “Methods for biosynthesizing 1,3 butadiene” (INVISTA North America S.á r.l., priority 2013, dated 2019).
